Test results as given in ChEMBL document CHEMBL1201862, “PubChem BioAssay data set” (2004).
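How tested: cells in 96-well plates exposed to compound for 48 hours at five concentrations. The concentration for 50% growth inhibition is given as GI50.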 Active and inactive are the calls of the source. Rule as the data show it: active = GI50 up to about 1.1 µM and inactive = higher.

Experiments:
Assay in all cases: DTP human tumour cell line panel, 48 h
DLD-1 = test system: DLD-1
SNB-78 = test system: SNB-78
DMS-114 = test system: DMS-114
RXF 631 = test system: RXF 631
M19-MEL = test system: M19-MEL
XF498 = test system: XF498
DMS-273 = test system: DMS-273
HOP-18 = test system: HOP-18
BT-549 = test system: BT-549

Row | Structure (SMILES) | GI50 (DLD-1) | GI50 (SNB-78) | GI50 (DMS-114) | GI50 (RXF 631) | GI50 (M19-MEL) | GI50 (XF498) | GI50 (DMS-273) | GI50 (HOP-18) | GI50 (BT-549)
1 | COc1cc2c(OC)cc1CSCc1sc(C)c(c1Br)CSC2 | > 100 µM (inactive) | > 100 µM (inactive) | > 100 µM (inactive) | > 100 µM (inactive) | > 100 µM (inactive) | > 100 µM (inactive) | > 100 µM (inactive) | > 100 µM (inactive) | –
2 | NCCCNCCSSCCCCS(=O)O | 45.8 µM (inactive) | 22.8 µM (inactive) | > 100 µM (inactive) | > 100 µM (inactive) | 12.6 µM (inactive) | 18.2 µM (inactive) | 35.8 µM (inactive) | > 100 µM (inactive) | –
3 | C=CCN(N=O)C(=O)NCCCCC(NC(C)=O)C(=O)NCc1ccccc1 (stereo not drawn) | – | – | > 100 µM (inactive) | > 100 µM (inactive) | > 100 µM (inactive) | > 100 µM (inactive) | > 100 µM (inactive) | 80.7 µM (inactive) | –
4 | CC(=O)N1C/C(=C\c2ccc(N(C)C)cc2)C(=O)/C(=C/c2ccc(N(C)C)cc2)C1 | 68.1 µM (inactive) | 85.9 µM (inactive) | 30.2 µM (inactive) | 55.2 µM (inactive) | 33.6 µM (inactive) | > 100 µM (inactive) | 49.8 µM (inactive) | 71.9 µM (inactive) | –
5 | NC(=O)c1cc(N2CC2)c([N+](=O)[O-])cc1[N+](=O)[O-] [TRETAZICAR] | – | > 100 µM (inactive) | > 100 µM (inactive) | > 100 µM (inactive) | > 100 µM (inactive) | – | > 100 µM (inactive) | – | > 100 µM (inactive)
6 | O=C1CCC(=O)N1Sc1ccccc1 | > 100 µM (inactive) | > 100 µM (inactive) | > 100 µM (inactive) | > 100 µM (inactive) | > 100 µM (inactive) | – | > 100 µM (inactive) | – | –
7 | CCCOC(=O)C1C(c2ccc(OC)cc2)NC(c2ccc(OC)cc2)C(C(=O)OCCC)S1(=O)=O (stereo not drawn) | > 10 µM (inactive) | > 10 µM (inactive) | > 10 µM (inactive) | > 10 µM (inactive) | – | 9.18 µM (inactive) | > 10 µM (inactive) | > 10 µM (inactive) | –
8 | NCCCNc1ccc2c3c(nn2CCNCCO)-c2c(O)ccc(O)c2C(=O)c13 | 4.08 µM (inactive) | 1.42 µM (inactive) | 0.561 µM (active) | – | 1.5 µM (inactive) | 0.125 µM (active) | 0.366 µM (active) | 2.32 µM (inactive) | 0.695 µM (active)
9 | c1ccc2c(c1)n1nnnc1c1nnnn21 | > 100 µM (inactive) | 53.6 µM (inactive) | 83.4 µM (inactive) | > 100 µM (inactive) | > 100 µM (inactive) | > 100 µM (inactive) | > 100 µM (inactive) | – | –
10 | COC(=O)CCC(NC(=S)N/N=C(\C)c1ccc[nH]1)C(=O)OC (stereo not drawn) | > 100 µM (inactive) | > 100 µM (inactive) | > 100 µM (inactive) | – | > 100 µM (inactive) | > 100 µM (inactive) | > 100 µM (inactive) | > 100 µM (inactive) | –
11 | O=CN/C=C/c1cccc(O)c1 | > 100 µM (inactive) | > 100 µM (inactive) | > 100 µM (inactive) | – | > 100 µM (inactive) | > 100 µM (inactive) | > 100 µM (inactive) | > 100 µM (inactive) | 8.26 µM (inactive)
12 | O=c1nc2occc2cn1C1CC(O)C(CO)O1 (stereo not drawn) | > 100 µM (inactive) | > 100 µM (inactive) | > 100 µM (inactive) | > 100 µM (inactive) | > 100 µM (inactive) | > 100 µM (inactive) | > 100 µM (inactive) | > 100 µM (inactive) | –
13 | COc1ccc(C2=C(Cl)c3cc(OC)c(OC)cc3C2OC)cc1OC (stereo not drawn) | 17.9 µM (inactive) | > 100 µM (inactive) | 14.2 µM (inactive) | – | > 100 µM (inactive) | > 100 µM (inactive) | 27.4 µM (inactive) | > 100 µM (inactive) | –
14 | Nc1nc2c(ncn2C2OC(CO)C(O)C2N)c(=O)[nH]1 (stereo not drawn) | > 100 µM (inactive) | > 100 µM (inactive) | > 100 µM (inactive) | 79.6 µM (inactive) | > 100 µM (inactive) | > 100 µM (inactive) | > 100 µM (inactive) | – | –
15 | O=C1NC(=S)NC(=O)C1=Cc1cc2c(cc1[N+](=O)[O-])OCO2 | 67.3 µM (inactive) | > 100 µM (inactive) | 36.8 µM (inactive) | 97.3 µM (inactive) | > 100 µM (inactive) | – | 63.1 µM (inactive) | > 100 µM (inactive) | –
16 | N#CC(C(=O)CCC(=O)Nc1cccc(Cl)c1)c1ccccc1 (stereo not drawn) | > 100 µM (inactive) | > 100 µM (inactive) | > 100 µM (inactive) | > 100 µM (inactive) | > 100 µM (inactive) | – | > 100 µM (inactive) | > 100 µM (inactive) | –
17 | CC(=O)OC1(C#N)CC2OC1C1C2N1C(=O)c1ccccc1 (stereo not drawn) | > 100 µM (inactive) | > 100 µM (inactive) | > 100 µM (inactive) | > 100 µM (inactive) | > 100 µM (inactive) | > 100 µM (inactive) | – | – | –
18 | Cc1ccc(C)c(NC(=O)C(=O)C2C(=O)N(c3ccccc3)N=C2N)c1 (stereo not drawn) | > 100 µM (inactive) | > 100 µM (inactive) | – | > 100 µM (inactive) | > 100 µM (inactive) | > 100 µM (inactive) | > 100 µM (inactive) | > 100 µM (inactive) | –
